Reference: PubChem BioAssay (NCI)
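48-hour exposure; five concentrations; linearly interpolated endpoints. TGI denotes the concentration required for complete inhibition of growth.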

Assays:
Experiment in all cases: NCI anticancer screen, dose series, 48 h
[1] = test system: 786-0 renal
[2] = test system: A498 renal
[3] = test system: A549 NSCLC
[4] = test system: ACHN renal
[5] = test system: BT-549 breast
[6] = test system: CAKI-1 renal
[7] = test system: CCRF-CEM leukemia
[8] = test system: DU-145 prostate
[9] = test system: EKVX NSCLC
[10] = test system: HCC-2998 colon
[11] = test system: HCT-116 colon
[12] = test system: HCT-15 colon
[13] = test system: HL-60(TB) leukemia
[14] = test system: HOP-62 NSCLC
[15] = test system: HOP-92 NSCLC
[16] = test system: HS 578T breast
[17] = test system: HT29 colon
[18] = test system: IGROV1 ovarian
[19] = test system: K-562 leukemia
[20] = test system: KM12 colon
[21] = test system: LOX IMVI melanoma
[22] = test system: M14 melanoma
[23] = test system: MALME-3M melanoma
[24] = test system: MCF7 breast
[25] = test system: MDA-MB-231 breast
[26] = test system: MDA-MB-435
[27] = test system: MDA-N
[28] = test system: MOLT-4 leukemia
[29] = test system: NCI-H226 lung
[30] = test system: NCI-H23 lung
[31] = test system: NCI-H460 lung
[32] = test system: NCI-H522 lung
[33] = test system: NCI/ADR-RES ovarian
[34] = test system: OVCAR-3 ovarian
[35] = test system: OVCAR-4 ovarian
[36] = test system: OVCAR-5 ovarian
[37] = test system: OVCAR-8 ovarian
[38] = test system: PC-3 prostate
[39] = test system: RPMI-8226 leukemia
[40] = test system: RXF 393 renal
[41] = test system: SF-268 CNS
[42] = test system: SF-295 CNS
[43] = test system: SF-539 CNS
[44] = test system: SK-MEL-2 melanoma
[45] = test system: SK-MEL-28 melanoma
[46] = test system: SK-MEL-5 melanoma
[47] = test system: SK-OV-3 ovarian
[48] = test system: SN12C renal
[49] = test system: SNB-19 CNS
[50] = test system: SNB-75 CNS
[51] = test system: SW-620 colon
[52] = test system: T-47D breast
[53] = test system: TK-10 renal
[54] = test system: U251 CNS
[55] = test system: UACC-257 melanoma
[56] = test system: UACC-62 melanoma
[57] = test system: UO-31 renal
[58] = test system: COLO 205 colon

Question: With Nc1ncnc2c1ccn2COC(CO)CO as the compound, how does the TGI [1] read?
Answer: > 100 µM

Question: And the TGI [2]?
Answer: > 100 µM

Question: And the TGI [3]?
Answer: > 100 µM

Question: What about the TGI [4] of the same compound?
Answer: > 100 µM

Question: And the TGI [5]?
Answer: > 100 µM

Question: And the TGI [6]?
Answer: > 100 µM

Question: And the TGI [7]?
Answer: > 100 µM

Question: What about the TGI [8] of the same compound?
Answer: > 100 µM

Question: And the TGI [9]?
Answer: > 100 µM

Question: What about the TGI [10] of the same compound?
Answer: > 100 µM

Question: And the TGI [11]?
Answer: > 100 µM

Question: And the TGI [12]?
Answer: > 100 µM

Question: And the TGI [13]?
Answer: > 100 µM

Question: What about the TGI [14] of the same compound?
Answer: > 100 µM

Question: What about the TGI [15] of the same compound?
Answer: > 100 µM

Question: What about the TGI [16] of the same compound?
Answer: > 100 µM

Question: What about the TGI [17] of the same compound?
Answer: > 100 µM

Question: And the TGI [18]?
Answer: > 100 µM

Question: And the TGI [19]?
Answer: > 100 µM

Question: What about the TGI [20] of the same compound?
Answer: > 100 µM

Question: And the TGI [21]?
Answer: > 100 µM

Question: What about the TGI [22] of the same compound?
Answer: > 100 µM

Question: And the TGI [23]?
Answer: > 100 µM

Question: What about the TGI [24] of the same compound?
Answer: > 100 µM

Question: And the TGI [25]?
Answer: > 100 µM

Question: And the TGI [26]?
Answer: > 100 µM

Question: What about the TGI [27] of the same compound?
Answer: > 100 µM

Question: And the TGI [28]?
Answer: > 100 µM

Question: What about the TGI [29] of the same compound?
Answer: > 100 µM

Question: What about the TGI [30] of the same compound?
Answer: > 100 µM

Question: And the TGI [31]?
Answer: > 100 µM

Question: And the TGI [32]?
Answer: > 100 µM

Question: What about the TGI [33] of the same compound?
Answer: > 100 µM

Question: What about the TGI [34] of the same compound?
Answer: > 100 µM

Question: And the TGI [35]?
Answer: > 100 µM

Question: What about the TGI [36] of the same compound?
Answer: > 100 µM

Question: And the TGI [37]?
Answer: > 100 µM

Question: What about the TGI [38] of the same compound?
Answer: > 100 µM

Question: What about the TGI [39] of the same compound?
Answer: > 100 µM

Question: And the TGI [40]?
Answer: > 100 µM

Question: What about the TGI [41] of the same compound?
Answer: > 100 µM

Question: And the TGI [42]?
Answer: > 100 µM

Question: And the TGI [43]?
Answer: > 100 µM

Question: And the TGI [44]?
Answer: > 100 µM

Question: What about the TGI [45] of the same compound?
Answer: > 100 µM

Question: What about the TGI [46] of the same compound?
Answer: > 100 µM

Question: What about the TGI [47] of the same compound?
Answer: > 100 µM

Question: What about the TGI [48] of the same compound?
Answer: > 100 µM

Question: What about the TGI [49] of the same compound?
Answer: > 100 µM

Question: And the TGI [50]?
Answer: > 100 µM

Question: What about the TGI [51] of the same compound?
Answer: > 100 µM

Question: What about the TGI [52] of the same compound?
Answer: > 100 µM

Question: What about the TGI [53] of the same compound?
Answer: > 100 µM

Question: What about the TGI [54] of the same compound?
Answer: > 100 µM

Question: And the TGI [55]?
Answer: > 100 µM

Question: And the TGI [56]?
Answer: > 100 µM

Question: And the TGI [57]?
Answer: > 100 µM

Question: Which TGI [1] does the source give for CN(C)c1ccc(/C=C(\NC(=O)c2ccccc2)C(=O)Nc2ccccc2C(=O)NCc2ccccc2)cc1 here?
Answer: > 100 µM

Question: What about the TGI [2] of the same compound?
Answer: > 100 µM

Question: And the TGI [3]?
Answer: > 100 µM

Question: And the TGI [4]?
Answer: > 100 µM

Question: What about the TGI [5] of the same compound?
Answer: > 100 µM

Question: What about the TGI [6] of the same compound?
Answer: > 100 µM

Question: And the TGI [7]?
Answer: > 100 µM

Question: And the TGI [58]?
Answer: > 100 µM

Question: What about the TGI [8] of the same compound?
Answer: > 100 µM

Question: What about the TGI [9] of the same compound?
Answer: > 100 µM

Question: And the TGI [10]?
Answer: > 100 µM

Question: And the TGI [11]?
Answer: > 100 µM

Question: What about the TGI [12] of the same compound?
Answer: > 100 µM

Question: And the TGI [13]?
Answer: > 100 µM

Question: And the TGI [14]?
Answer: > 100 µM

Question: And the TGI [15]?
Answer: > 100 µM

Question: And the TGI [16]?
Answer: > 100 µM

Question: What about the TGI [17] of the same compound?
Answer: > 100 µM

Question: And the TGI [18]?
Answer: > 100 µM

Question: And the TGI [19]?
Answer: > 100 µM

Question: What about the TGI [20] of the same compound?
Answer: > 100 µM

Question: What about the TGI [21] of the same compound?
Answer: > 100 µM

Question: And the TGI [22]?
Answer: > 100 µM

Question: What about the TGI [23] of the same compound?
Answer: > 100 µM

Question: And the TGI [24]?
Answer: > 100 µM

Question: And the TGI [25]?
Answer: > 100 µM

Question: What about the TGI [26] of the same compound?
Answer: > 100 µM

Question: And the TGI [27]?
Answer: > 100 µM

Question: And the TGI [28]?
Answer: > 100 µM

Question: And the TGI [29]?
Answer: > 100 µM

Question: And the TGI [30]?
Answer: > 100 µM

Question: What about the TGI [31] of the same compound?
Answer: > 100 µM

Question: What about the TGI [32] of the same compound?
Answer: 93.3 µM

Question: What about the TGI [33] of the same compound?
Answer: > 100 µM

Question: And the TGI [34]?
Answer: > 100 µM

Question: And the TGI [35]?
Answer: > 100 µM

Question: And the TGI [36]?
Answer: > 100 µM

Question: What about the TGI [37] of the same compound?
Answer: > 100 µM

Question: And the TGI [38]?
Answer: > 100 µM

Question: And the TGI [39]?
Answer: > 100 µM

Question: What about the TGI [40] of the same compound?
Answer: > 100 µM

Question: What about the TGI [41] of the same compound?
Answer: > 100 µM

Question: What about the TGI [42] of the same compound?
Answer: > 100 µM

Question: And the TGI [43]?
Answer: > 100 µM

Question: And the TGI [44]?
Answer: > 100 µM

Question: And the TGI [45]?
Answer: > 100 µM

Question: What about the TGI [46] of the same compound?
Answer: > 100 µM

Question: And the TGI [47]?
Answer: > 100 µM

Question: And the TGI [48]?
Answer: > 100 µM

Question: What about the TGI [49] of the same compound?
Answer: > 100 µM

Question: What about the TGI [50] of the same compound?
Answer: > 100 µM

Question: And the TGI [51]?
Answer: > 100 µM

Question: What about the TGI [52] of the same compound?
Answer: > 100 µM

Question: And the TGI [53]?
Answer: > 100 µM

Question: And the TGI [54]?
Answer: > 100 µM

Question: What about the TGI [55] of the same compound?
Answer: > 100 µM

Question: And the TGI [56]?
Answer: > 100 µM

Question: What about the TGI [57] of the same compound?
Answer: > 100 µM
